# Source: patent publication US5534496A, “Methods and compositions to enhance epithelial drug transport” (University of Southern California, priority 1994, dated 1996)
# Entries after “also recorded” stand apart in the source; their conditions may differ. Where a SMILES comes first, the peptide text is derived from it. [ ]: non-standard residue; d: D form. The star is where a group is joined. X1 = O=C(OCc1ccc(/N=N/c2ccccc2)cc1)*
# Experiments:
# [1] = tested on: isolated segments of duodenum, jejunum, ileum, ascending colon, descending colon, and rectum; test: Penetration across isolated intestinal segments in modified Ussing chamber; format: in vitro ADME, albino rabbit; settings: for penetration relative to atenolol, timolol and propranolol: all intestinal segments, all at 3 mM; for penetration: descending colon
# Description: The penetration of Pz-peptide across the isolated segments of duodenum, jejunum, ileum, ascending colon, descending colon, and rectum of the albino rabbit was evaluated in the modified Ussing chamber. Solution of Pz-peptide at concentrations of 1, 3, and 5 mM were prepared in 5% hydroxypropyl β-cyclodextrin, which was found not to affect either collagenase activity or integrity of the intestinal segments. Periodically up until 240 min, a 50 μl aliquot was collected from the serosal side and injected directly into the HPLC. The apparent permeability coefficient Papp, was calculated using methods well known to one skilled in the art. Papp is defined as the flux of any solute transported across a given membrane per unit area normalized to the concentration applied (see pages 72-73 from the text by W. D. Stein entitled, "Transport and Diffusion A Cross Cell Membranes").
# [2] = Degradation in intestinal homogenates; format: in vitro ADME; settings: 0.5 mM; various intestinal homogenates
# Text: Key: .quadrature., Pz-Pro-Leu; , Pro-Leu.
# [3] = from Betageri and Rogers (1987); cited from earlier work
# bacterial collagenase = test: Hydrolysis by bacterial collagenase; settings: 0.04 mg/ml bacterial collagenase
# Caco2 monolayers = test: Penetration of peptides across Caco2 monolayers; settings: 5 mM
# [4] = tested on: collagenase-like activity; test: Collagenase activity (Pz-peptide hydrolysis) in homogenates and subcellular fractions of gastrointestinal mucosa; format: in vitro ADME; settings: albino rabbit intestinal segments
# Description: Collagenase activity in homogenates and subcellular fractions of the gastrointestinal mucosa of the albino rabbit was determined by incubating 30 μl a homogenate or subcellular fraction with 20 μl of a Pz-peptide solution in 11% ethanol for up to 60 min. The subcellular fractions were the cytosolic and membrane fractions, and the concentrations of Pz-peptide ranged from 0.1 to 2 mM. The reaction was stopped by adding 225 μl of acetonitrile to the incubation mixture. Following centrifugation to remove precipitated proteins, an aliquot of the supernatant was injected into the HPLC for assay of the intact peptide and its hydrolytic product, Pz-L-Pro-L-Leu. Collagenase activity was determined from the initial slope of a plot of product concentration vs. time.
# Using the procedure described in section A above, collagenase actively for the Pz-peptide was found in both tissue homogenate and subcellular fractions of the intestinal segments of the albino rabbit. Referring to FIG. 1, collagenase-like activity was highest in the descending colon and lowest in the jejunum, there being a 7-fold difference in activity at both high and low substrate concentration. […] About 60% of collagenase-like activity was in the cytosol.
# [5] = tested on: human colon carcinoma cell monolayer (Caco2); test: Transepithelial electrical resistance (TEER) of Caco2 monolayers; settings: 3 mM; prolonged exposure
# Description: A 500 ohms·cm^2 transepithelial electrical resistance, TEER, was used for the study.
# The experiment was initiated by replacing the mucosal solution with sample solution. The viability of the cell monolayers was measured by TEER before and after exposure to the peptide solution. Five paracellular markers with different molecular radii were used to determine the extent of enhancement.
smiles,measurement,setting,value
"CC(C)C[C@H](NC(=O)[C@@H]1CCCN1C(=O)OCc1ccc(/N=N/c2ccccc2)cc1)C(=O)O [Pz-Pro-Leu, Pz-L-Pro-L-Leu]",concentration dependence of penetration,[1]; all intestinal segments studied,independent of concentrations
same,"penetration relative to atenolol, timolol and propranolol",[1],penetrated equally well or even better
same,penetration,[1],penetrated very well
same,enzymatic degradation,[2],resistant to enzymatic degradation
CC(C)NCC(O)COc1cccc2ccccc12 (stereo not drawn) [propranolol],distribution coefficient (DC),[3],1640
"CC(C)C[C@H](NC(=O)[C@@H]1CCCN1)C(=O)N[C@@H](CCC(=O)O)C(=O)N1CCC[C@H]1C(=O)N[C@H](CCCNC(=N)N)C(=O)O [PLEP^d R, Pro-Leu-Glu-Pro-^d Arg] (H-PLEP[dR]-OH)",susceptibility to collagenase action,bacterial collagenase,not susceptible to collagenase action
"CC(C)C[C@H](NC(=O)[C@@H]1CCCN1)C(=O)O [Pro-Leu, reference compound] (H-Pro-Leu-OH)",penetration relative to Pz-Pro-Leu,Caco2 monolayers,about 10 times lower
same,enzymatic degradation,[2],degraded to various extent
"CC(C)C[C@H](NC(=O)[C@@H]1CCCN1C(=O)OCc1ccc(/N=N/c2ccccc2)cc1)C(=O)NCC(=O)N1CCC[C@H]1C(=O)N[C@H](CCCNC(=N)N)C(=O)O [Pz-peptide, Pz-Pro-Leu-Gly-Pro-D-Arg] (X1-PLGP[dR]-OH)",rank order of collagenase-like activity (Pz-peptide hydrolysis) in intestinal segments,[4],descending colon>ascending colon>rectum>ileum>duodenum>jejunum
same,concentration dependence of penetration,"[1]; 1-5 mM, lower G.I. regions",increased with increasing peptide concentrations
same,concentration dependence of transport,"[1]; 1-5 mM, upper G.I. segments",independent of concentrations
same,"permeability, lower intestine versus upper intestine",[1]; albino rabbit intestinal segments,lower intestine was more permeable
same,"penetration relative to atenolol, timolol and propranolol",[1],penetrated equally well or even better
same,penetration,[1],penetrated very well; also recorded: penetrated the second best
same,rank order of permeability coefficient,[1]; lower intestine,rectum>descending colon>ascending colon
same,"permeability of duodenum, jejunum and ileum",[1]; upper intestine,equally permeable
C=C1[C@@H](C)[C@H]2[C@H](Cc3ccccc3)NC(=O)[C@]23OC(=O)/C=C/[C@H](O)CCC[C@@H](C)C/C=C/[C@H]3[C@@H]1O [cytochalasin B],recovery of TEER,[5],only partial recovery
CC(C)(C)NC[C@H](O)COc1nsnc1N1CCOCC1 [timolol],distribution coefficient (DC),[3],82
